Measurements as given in ChEMBL document CHEMBL1130591, “P2-proline-derived inhibitors of calpain I” (Bioorg Med Chem Lett, 1998).
Non-standard residues stand in square brackets, D forms with d. Residues, ends and D or L forms follow the SMILES beside them. *: point of attachment. Tos = Cc1ccc(S(=O)(=O)*)cc1; Ms = CS(=O)(=O)*

Tests used:
[1] = target: T1, Calpain-1 catalytic subunit (Homo sapiens, UniProt P07384); assay: Compound was tested for inhibitory activity against recombinant human Calpain 1
T1 sequence (P07384 whole entry): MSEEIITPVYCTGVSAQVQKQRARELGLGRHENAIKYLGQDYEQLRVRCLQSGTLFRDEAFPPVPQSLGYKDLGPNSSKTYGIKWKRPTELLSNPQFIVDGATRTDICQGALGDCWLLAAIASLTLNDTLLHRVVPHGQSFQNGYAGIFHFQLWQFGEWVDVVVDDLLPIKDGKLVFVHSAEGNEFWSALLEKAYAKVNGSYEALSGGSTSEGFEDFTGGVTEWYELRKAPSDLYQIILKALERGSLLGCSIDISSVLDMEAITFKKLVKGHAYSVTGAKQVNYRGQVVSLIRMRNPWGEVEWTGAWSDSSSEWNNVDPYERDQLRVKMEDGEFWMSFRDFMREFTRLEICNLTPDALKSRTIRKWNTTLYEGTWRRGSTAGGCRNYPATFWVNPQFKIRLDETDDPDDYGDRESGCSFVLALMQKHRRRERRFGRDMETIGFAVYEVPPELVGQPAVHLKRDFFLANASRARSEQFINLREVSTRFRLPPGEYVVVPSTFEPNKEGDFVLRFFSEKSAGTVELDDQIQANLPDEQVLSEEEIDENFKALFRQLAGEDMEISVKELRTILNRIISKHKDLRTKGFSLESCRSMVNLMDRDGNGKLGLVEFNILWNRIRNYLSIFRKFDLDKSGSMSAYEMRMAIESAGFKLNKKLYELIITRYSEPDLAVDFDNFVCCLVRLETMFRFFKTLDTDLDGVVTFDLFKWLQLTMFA

Cathepsin B = Cathepsin B (Homo sapiens, UniProt P07858); assay: Compound was tested for inhibitory activity against Cathepsin B.
[2] = target: T2, Calpain-1 catalytic subunit (Homo sapiens) (UniProt P07384); assay: Compound was tested for inhibitory activity against recombinant human Calpain 1 at concentration of 1 uM
T2 sequence (whole entry): T1 sequence (P07384 whole entry)

[3] = target: Chymotrypsinogen A (Bos taurus) (UniProt P00766); assay: Compound was tested for inhibitory activity against alpha-chymotrypsin at concentration of 1 uM.
[4] = target: Chymotrypsinogen A (Bos taurus) (UniProt P00766); assay: Compound was tested for inhibitory activity against alpha-chymotrypsin at concentration of 10 uM.

Row | IC50 [1] [nM] | IC50 (Cathepsin B) [nM] | Compound | also measured
1 | 41 | 1400 | O=C[C@H](Cc1ccccc1)NC(=O)[C@@H]1CCCN1S(=O)(=O)c1ccccc1 | 
2 | 125 |  | O=C[C@H](Cc1ccccc1)NC(=O)[C@@H]1C[C@@H](OCc2ccccc2)CN1S(=O)(=O)c1ccccc1 | 
3 | 13 | 38 | O=C[C@H](Cc1ccccc1)NC(=O)[C@@H]1C[C@@H](OS(=O)(=O)c2ccccc2)CN1S(=O)(=O)c1ccccc1 | 
4 |  |  | Cc1ccc(S(=O)(=O)N2C[C@@H](OS(C)(=O)=O)C[C@@H]2C(=O)N[C@H](C=O)Cc2ccccc2)cc1 | inhibition [2]: 79%
5 |  |  | Cc1ccc(S(=O)(=O)O[C@@H]2C[C@H](C(=O)N[C@H](C=O)Cc3ccccc3)N(S(=O)(=O)c3ccccc3)C2)cc1 | inhibition [2]: 48%
6 |  |  | Cc1ccc(S(=O)(=O)O[C@H]2C[C@H](C(=O)N[C@H](C=O)Cc3ccccc3)N(S(=O)(=O)c3ccc(C)cc3)C2)cc1 | inhibition [2]: 74%
7 |  |  | O=C[C@H](Cc1ccccc1)NC(=O)[C@H]1C[C@H](OS(=O)(=O)c2ccccc2)CN1S(=O)(=O)c1ccccc1 | inhibition [3]: 42%
8 | 45 | 883 | CS(=O)(=O)N1CCC[C@H]1C(=O)N[C@H](C=O)Cc1ccccc1 (Ms-Pro-Phe-aldehyde) | 
9 |  | 3000 | CS(=O)(=O)N1CCC[C@@H]1C(=O)N[C@H](C=O)Cc1ccccc1 (Ms-[dP]-Phe-aldehyde) | inhibition [4]: 2%
10 |  | 3600 | Cc1ccc(S(=O)(=O)N2CCC[C@@H]2C(=O)N[C@H](C=O)Cc2ccccc2)cc1 (Tos-[dP]-Phe-aldehyde) | inhibition [4]: 12%
11 | 100 |  | Cc1ccc(S(=O)(=O)N2C[C@H](NC(=O)C(F)(F)F)CC2C(=O)N[C@H](C=O)Cc2ccccc2)cc1 (single isomer, unassigned) | 
12 | 28 | 8700 | Cc1ccc(S(=O)(=O)N2C[C@H](C#N)CC2C(=O)N[C@H](C=O)Cc2ccccc2)cc1 (single isomer, unassigned) | inhibition [4]: 6%
13 |  | > 10000 | Cc1ccc(S(=O)(=O)N2C[C@H](N=[N+]=[N-])CC2C(=O)N[C@H](C=O)Cc2ccccc2)cc1 (single isomer, unassigned) | inhibition [4]: 9%
14 |  |  | Cc1ccc(S(=O)(=O)N2C[C@H](NS(C)(=O)=O)CC2C(=O)N[C@H](C=O)Cc2ccccc2)cc1 (single isomer, unassigned) | inhibition [2]: 40%
